From US9469650B2, “Melampomagnolide B derivatives” (BOARD OF TRUSTEES OF THE UNIVERSITY OF ARKANSAS, priority 2013, dated 2016)

Key:
SR = assay: panel of 60 human tumor cell lines, growth inhibition (Leukemia); conditions: Homo sapiens; for CC50: read-out: LC50; for IC (TGI): read-out: TGI
MDA-MB-435 = assay: panel of 60 human tumor cell lines, growth inhibition (Melanoma); conditions: Homo sapiens; for GI50: MDA-MB-435; for CC50: MDA-MB-435, read-out: LC50; for IC (TGI): MDA-MB-435, read-out: TGI
SK-MEL-28 = assay: as above; conditions: Homo sapiens; for GI50: SK-MEL-28; for CC50: SK-MEL-28, read-out: LC50; for IC (TGI): SK-MEL-28, read-out: TGI
UACC-62 = assay: as above; conditions: Homo sapiens; for GI50: UACC-62; for CC50: UACC-62, read-out: LC50; for IC (TGI): UACC-62, read-out: TGI
SF-295 = assay: panel of 60 human tumor cell lines, growth inhibition (CNS Cancer); conditions: Homo sapiens; for GI50: SF-295; for CC50: SF-295, read-out: LC50; for IC (TGI): SF-295, read-out: TGI
SF-539 = assay: as above; conditions: Homo sapiens; for GI50: SF-539; for CC50: SF-539, read-out: LC50; for IC (TGI): SF-539, read-out: TGI
SNB-19 = assay: as above; conditions: Homo sapiens; for GI50: SNB-19; for CC50: SNB-19, read-out: LC50; for IC (TGI): SNB-19, read-out: TGI
SNB-75 = assay: as above; conditions: Homo sapiens; for GI50: SNB-75; for CC50: SNB-75, read-out: LC50; for IC (TGI): SNB-75, read-out: TGI
COLO 205 = assay: panel of 60 human tumor cell lines, growth inhibition (Colon Cancer); conditions: Homo sapiens; for GI50: COLO 205; for CC50: COLO 205, read-out: LC50; for IC (TGI): COLO 205, read-out: TGI
HCC-2998 = assay: as above; conditions: Homo sapiens; for GI50: HCC 2998; for CC50: HCC 2998, read-out: LC50; for IC (TGI): HCC 2998, read-out: TGI
HCT-116 = assay: as above; conditions: Homo sapiens; for CC50: HCT-116, read-out: LC50; for IC (TGI): HCT-116, read-out: TGI
KM12 = assay: as above; conditions: for GI50 / CC50: Homo sapiens; for CC50: KM12, read-out: LC50
ACHN = assay: panel of 60 human tumor cell lines, growth inhibition (Renal Cancer); conditions: Homo sapiens; for CC50: read-out: LC50; for IC (TGI): read-out: TGI
RXF 393 = assay: as above; conditions: Homo sapiens; for CC50: RXF 393, read-out: LC50; for IC (TGI): RXF 393, read-out: TGI
SN12C = assay: as above; conditions: Homo sapiens; for CC50: read-out: LC50; for IC (TGI): read-out: TGI
UO-31 = assay: as above; conditions: Homo sapiens; for GI50: UO-31; for CC50: UO-31, read-out: LC50; for IC (TGI): UO-31, read-out: TGI
BT-549 = assay: panel of 60 human tumor cell lines, growth inhibition (Breast Cancer); conditions: Homo sapiens; for GI50: BT-549; for CC50: BT-549, read-out: LC50; for IC (TGI): BT-549, read-out: TGI
NCI/ADR-RES = assay: panel of 60 human tumor cell lines, growth inhibition (Ovarian Cancer); conditions: Homo sapiens; for CC50: read-out: LC50; for IC (TGI): read-out: TGI
NCI-H322M = assay: panel of 60 human tumor cell lines, growth inhibition (Non-Small Cell Lung Cancer); conditions: Homo sapiens; for CC50: read-out: LC50; for IC (TGI): read-out: TGI

C=C1C(=O)O[C@H]2[C@H]1CC/C(COC(=O)NCCN1CCOCC1)=C\CC[C@@]1(C)O[C@@H]21 [JVM 57, ((1aR,7aS,10aS,10bS,E)-1a-methyl-8-methylene-9-oxo-1a,2,3,6,7,7a,8,9,10a,10b-decahydrooxireno[2′,3′:9,10]-cyclodeca[1,2-b]furan-5-yl)-methyl(2-morpholinoethyl)carbamate]
GI50 (SR): 3.65 µM
CC50 (SR): > 100 µM
IC (TGI) (SR): 25.1 µM
GI50 (MDA-MB-435): 5.89 µM
CC50 (MDA-MB-435): 66.9 µM
IC (TGI) (MDA-MB-435): 22 µM
GI50 (SK-MEL-28): 10.5 µM
CC50 (SK-MEL-28): 47.2 µM
IC (TGI) (SK-MEL-28): 22.2 µM
GI50 (UACC-62): 11.8 µM
CC50 (UACC-62): 53.2 µM
IC (TGI) (UACC-62): 25.1 µM
GI50 (SF-295): > 100 µM
CC50 (SF-295): > 100 µM
IC (TGI) (SF-295): > 100 µM
GI50 (SF-539): 14.4 µM
CC50 (SF-539): 55.2 µM
IC (TGI) (SF-539): 28.2 µM
GI50 (SNB-19): 45.3 µM
CC50 (SNB-19): > 100 µM
IC (TGI) (SNB-19): > 100 µM
GI50 (SNB-75): 19.5 µM
CC50 (SNB-75): > 100 µM
IC (TGI) (SNB-75): > 100 µM
GI50 (COLO 205): 8.89 µM
CC50 (COLO 205): 71.6 µM
IC (TGI) (COLO 205): 25.9 µM
GI50 (HCC-2998): 19.7 µM
CC50 (HCC-2998): 72.3 µM
IC (TGI) (HCC-2998): 37.7 µM
GI50 (HCT-116; HCT-116, HCT-116): 2.87 µM
GI50 (HCT-116; HCT-116, HCT-116, 5-dose assay): 2.87 µM
CC50 (HCT-116): 38.9 µM
IC (TGI) (HCT-116): 10.7 µM
GI50 (KM12; KM12): 26.3 µM
CC50 (KM12): > 100 µM
TGI (KM12; KM12): 7.66E−5
Percent Growth (KM12; KM12, Log10 Concentration −4.0): −12%
Percent Growth (KM12; KM12, Log10 Concentration −5.0): 95%
Percent Growth (KM12; KM12, Log10 Concentration −6.0): 100%
Percent Growth (KM12; KM12, Log10 Concentration −7.0): 106%
Percent Growth (KM12; KM12, Log10 Concentration −8.0): 102%
GI50 (ACHN): 3.74 µM
CC50 (ACHN): 44.3 µM
IC (TGI) (ACHN): 14.3 µM
GI50 (RXF 393; RXF 393, RXF 393): 3 µM
GI50 (RXF 393; RXF 393, RXF 393, 5-dose assay): 3 µM
CC50 (RXF 393): 41 µM
IC (TGI) (RXF 393): 11.9 µM
GI50 (SN12C): 18.8 µM
CC50 (SN12C): > 100 µM
IC (TGI) (SN12C): 55.2 µM
GI50 (UO-31): 10.7 µM
CC50 (UO-31): 54.5 µM
IC (TGI) (UO-31): 24.1 µM
GI50 (BT-549): 4.99 µM
CC50 (BT-549): 49.3 µM
IC (TGI) (BT-549): 17.6 µM
GI50 (NCI/ADR-RES): 52.3 µM
CC50 (NCI/ADR-RES): > 100 µM
IC (TGI) (NCI/ADR-RES): > 100 µM
GI50 (NCI-H322M): 37.9 µM
CC50 (NCI-H322M): > 100 µM
IC (TGI) (NCI-H322M): > 100 µM

C=C1C(=O)O[C@H]2[C@H]1CC/C(COC(=O)NCCN1CCCC1)=C\CC[C@@]1(C)O[C@@H]21 [JVM 59, ((1aR,7aS,10aS,10bS,E)-1a-methyl-8-methylene-9-oxo-1a,2,3,6,7,7a,8,9,10a,10b-decahydrooxireno[2′,3′:9,10]cyclodeca[1,2-b]furan-5-yl)methyl-(2-(pyrrolidin-1-yl)ethyl)carbamate]
GI50 (SR): 10.2 µM
CC50 (SR): > 100 µM
IC (TGI) (SR): 39.3 µM
GI50 (MDA-MB-435): 6.56 µM
CC50 (MDA-MB-435): 53.4 µM
IC (TGI) (MDA-MB-435): 21.1 µM
GI50 (SK-MEL-28): 12.3 µM
CC50 (SK-MEL-28): 52 µM
IC (TGI) (SK-MEL-28): 25.3 µM
GI50 (UACC-62): 13.3 µM
CC50 (UACC-62): 55.8 µM
IC (TGI) (UACC-62): 27.3 µM
GI50 (SF-295): 48.8 µM
CC50 (SF-295): > 100 µM
IC (TGI) (SF-295): > 100 µM
GI50 (SF-539): 15 µM
CC50 (SF-539): 54.1 µM
IC (TGI) (SF-539): 28.5 µM
GI50 (SNB-19): 59.1 µM
CC50 (SNB-19): > 100 µM
IC (TGI) (SNB-19): > 100 µM
GI50 (SNB-75): 18 µM
CC50 (SNB-75): > 100 µM
IC (TGI) (SNB-75): 79.3 µM
GI50 (COLO 205): 4.78 µM
CC50 (COLO 205): 45 µM
IC (TGI) (COLO 205): 16.8 µM
GI50 (HCC-2998): 19.2 µM
CC50 (HCC-2998): 67.9 µM
IC (TGI) (HCC-2998): 36.1 µM
GI50 (HCT-116; HCT-116, HCT-116, five dose): 3.18 µM
GI50 (HCT-116; HCT-116, HCT-116, 5-dose assay): 3.18 µM
CC50 (HCT-116): 38.2 µM
IC (TGI) (HCT-116): 12.7 µM
GI50 (KM12; KM12): 23.9 µM
CC50 (KM12): > 100 µM
TGI (KM12; KM12, five dose): 7.00E−5
Percent Growth (KM12; KM12, Log10 Concentration −4.0): −17%
Percent Growth (KM12; KM12, Log10 Concentration −5.0): 90%
Percent Growth (KM12; KM12, Log10 Concentration −6.0): 96%
Percent Growth (KM12; KM12, Log10 Concentration −7.0): 95%
Percent Growth (KM12; KM12, Log10 Concentration −8.0): 96%
GI50 (ACHN): 3.8 µM
CC50 (ACHN): 39.4 µM
IC (TGI) (ACHN): 14.7 µM
GI50 (RXF 393; RXF 393, RXF 393, five dose): 4.08 µM
GI50 (RXF 393; RXF 393, RXF 393, 5-dose assay): 4.08 µM
CC50 (RXF 393): 47.9 µM
IC (TGI) (RXF 393): 16.8 µM
GI50 (SN12C): 17.7 µM
CC50 (SN12C): 85.5 µM
IC (TGI) (SN12C): 39 µM
GI50 (UO-31): 13.4 µM
CC50 (UO-31): 75.3 µM
IC (TGI) (UO-31): 31.8 µM
GI50 (BT-549): 4.75 µM
CC50 (BT-549): 45 µM
IC (TGI) (BT-549): 18.6 µM
GI50 (NCI/ADR-RES): > 100 µM
CC50 (NCI/ADR-RES): > 100 µM
IC (TGI) (NCI/ADR-RES): > 100 µM
GI50 (NCI-H322M): 73.9 µM
CC50 (NCI-H322M): > 100 µM
IC (TGI) (NCI-H322M): > 100 µM
